These results are taken from paper PMC11612555, “Impact of camel milk lactoferrin peptides against breast cancer cells: in silico and in vitro study” (Frontiers in Pharmacology, 2024).

One assay has as its system MCF-7 cells. More on the design: % of inhibition of MCF-7: dose or concentration left out as unconfirmed. The settings on record: for IC50 Range / IC50 Value: MCF-7, MTT; for IC50 Value: mean ± SD.
Another assay deals with HDFa cells. As to the kind of experiment: MTT assay on HDFa normal cells, 48 h. It counts as cell-based, human. The settings on record: for IC50 Value: mean ± SD. On the procedure:
DMEM medium supplemented with 10% fetal bovine serum (FBS) and 1% penicillin-streptomycin (10,000 U/mL) (complete media) was prepared to culture MCF-7 and HDFa cells in T25 flasks at 37°C in a CO2 incubator. Once the cells had adhered and grown to 70%–90% confluence within 24–48 h, they were transferred to new flasks. 2 mL of 0.25% trypsin was added to detach the cells, which were then incubated for 5 min at 37°C. The trypsin activity was stopped by adding 2 mL of complete media. The detached cells were collected into a tube and centrifuged at 1,500 rpm for 5 min. After removing the supernatant, 3 mL of media was added to resuspend the cell pellet. 20 μL of suspended cells were mixed with 20 µL of 0.4% trypan blue for staining and cell counting. 100 μL of suspended cells in complete media, containing approximately 10^4 cells, were added to each well of a 96-well plate and incubated for 24 h to allow cell attachment. Peptides (PEP20, PEP24, PEP63, PEP66, PEP67, and PEP74) at various concentrations (200, 100, 50, 25, 12.5, 6.25 μg/mL) were then added to the media in each well. Each concentration was repeated three times. After a 48-h incubation period at 37°C, the peptide-treated medium was replaced with 100 µL of 0.5 mg/mL MTT and incubated for 4 h at 37°C in the dark. Following removal of the MTT and addition of 100 µL of DMSO, the absorbance of each well in the 96-well plate was measured at 595 nm using an ELISA reader (Bio-RAD microplate reader, Japan) ([Ali et al., 2018]; [Salim et al., 2022]).
The percentage viability was calculated by multiplying the absorbance of treated cells by 100 and dividing the absorbance of untreated cells. The viability of untreated cells is considered 100%. The each concentration of each peptide and cisplatin was repeated triplicate. The unite of cell viability and IC50 are percentage and μg/mL. The viability and IC50 of the treated cells are expressed as the mean ± standard deviation (SD). GraphPad Prism software (version 9.0, San Diego, CA, United States) was used to calculate the IC50 values of the peptides, […], and their combination.
For orientation: Tetrazolium assays rely on reduction of a dye to a coloured formazan, in cell work by metabolically active cells.

Where [1] appears, read: IC50 of HDFa related to IC50 of MCF-7.

In brackets after ≈: the same amount, converted by molar mass. Like-named read-outs stand apart in the source and are kept apart here. Ends that are not written are not given here. Peptide text beside a SMILES is read from it.

Protocol for MCF-7 cells: DMEM medium supplemented with 10% fetal bovine serum (FBS) and 1% penicillin-streptomycin (10,000 U/mL) (complete media) was prepared to culture MCF-7 and HDFa cells in T25 flasks at 37°C in a CO2 incubator. Once the cells had adhered and grown to 70%–90% confluence within 24–48 h, they were transferred to new flasks. 2 mL of 0.25% trypsin was added to detach the cells, which were then incubated for 5 min at 37°C. The trypsin activity was stopped by adding 2 mL of complete media. The detached cells were collected into a tube and centrifuged at 1,500 rpm for 5 min. After removing the supernatant, 3 mL of media was added to resuspend the cell pellet. 20 μL of suspended cells were mixed with 20 µL of 0.4% trypan blue for staining and cell counting. 100 μL of suspended cells in complete media, containing approximately 10^4 cells, were added to each well of a 96-well plate and incubated for 24 h to allow cell attachment. […] Each concentration was repeated three times. After a 48-h incubation period at 37°C, the peptide-treated medium was replaced with 100 µL of 0.5 mg/mL MTT and incubated for 4 h at 37°C in the dark. Following removal of the MTT and addition of 100 µL of DMSO, the absorbance of each well in the 96-well plate was measured at 595 nm using an ELISA reader (Bio-RAD microplate reader, Japan) ([Ali et al., 2018]; [Salim et al., 2022]).
The percentage viability was calculated by multiplying the absorbance of treated cells by 100 and dividing the absorbance of untreated cells. The viability of untreated cells is considered 100%. The each concentration of each peptide and cisplatin was repeated triplicate. The unite of cell viability and IC50 are percentage and μg/mL. The viability and IC50 of the treated cells are expressed as the mean ± standard deviation (SD). GraphPad Prism software (version 9.0, San Diego, CA, United States) was used to calculate the IC50 values of the peptides, mitotane, and their combination.

For `N.N.[Cl][Pt][Cl]` [Cisplatin, reference compound], in the assay on MCF-7 cells (setting [1]), the “SI (selectivity index)” value amounted to 1.565. Also, the “IC50 Range” value in the assay with MCF-7 cells (48 h) was 3.581 to 5.055 µg/mL; in the assay on HDFa cells it was 5.650 to 7.856 µg/mL. For the same compound, the “IC50 Value” in the assay on MCF-7 cells (48 h) worked out at 4.255 ± 0.738 µg/mL; with MCF-7 cells (48 h, listed as cisplatin), 4.25 µg/mL; in the assay with HDFa cells, 6.663 ± 1.10 µg/mL; with HDFa cells (listed as cisplatin), 6.66 µg/mL.

Regarding `CSCC[C@H](NC(=O)[C@H](CC(C)C)NC(=O)[C@H](Cc1ccccc1)NC(=O)[C@H](C)NC(=O)[C@H](CS)NC(=O)[C@H](C)NC(=O)[C@H](CCC(=O)O)NC(=O)[C@H](CC(C)C)NC(=O)[C@H](CC(C)C)NC(=O)[C@@H]1CCCN1C(=O)[C@H](CO)NC(=O)[C@@H](NC(=O)[C@H](CO)NC(=O)[C@@H](N)CS)[C@@H](C)O)C(=O)N[C@@H](CCCNC(=N)N)C(=O)O` [PEP66, CSTSPLLEACAFLMR] (H-CSTSPLLEACAFLMR-OH; N-terminus and C-terminus assumed), in the assay with MCF-7 cells (setting [1]), the “SI (selectivity index)” value is 3.19. Besides, in the assay on MCF-7 cells (48 h), the “IC50 Range” value was 46.73 to 59.71 µg/mL and the “IC50 Value” turned out to be 52.82 ± 6.49 µg/mL (≈ 32.2 µM). Further, the “% of inhibition of MCF-7” value with MCF-7 cells (concentration (Figure 6)) is given as 76.90%. Besides, the “percentage of MCF7 inhibition” value in the assay on MCF-7 cells (dose of 200 μg/mL) worked out at 77%. Besides, the “IC50 Range” value in the assay on HDFa cells fell in the range of 137.2 to 206.9 µg/mL.

Consider LFFPALLSLGALGLCLAASK [PEP67], for which the “SI (selectivity index)” value with MCF-7 cells came out at 0.6.

By IC50 is commonly meant the concentration needed to halve the response being measured. With PWNHIKRYF [PEP24, PWNHIKRYF], the IC50 with MCF-7 cells (48 h) was > 200 µg/mL.
